Measurements as given in PubChem BioAssay AID248 (DTP/NCI, 2004).
Where “and” joins values, the source holds several entries; their conditions need not be identical. Equal values may be shown once. Toxic doses and inconclusive results are not listed. Cut-off read from the data, not from the text of the source: active = T/C of 150% or more; inactive = T/C below 125%.

Tested on: L1210 leukemia ip in BDF1 mice, survival T/C
Assay: NCI In Vivo Anticancer Drug Screen. Data for tumor model L1210 Leukemia (intraperitoneal) in B6D2F1 (BDF1) mice
Details: endpoint: mean survival time, higher = longer survival
How it was run: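 Transplantable tumor model; survival measured in treated vs vehicle control mice. Value = treated/control.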

[1] = dose: 20.0 mg/kg/injection, schedule: Q01DX009 (ip), vehicle: saline
[2] = dose: 50.0 mg/kg/injection, schedule: Q01DX001 (ip), vehicle: saline
[3] = dose: 100.0 mg/kg/injection, schedule: Q01DX001 (ip), vehicle: saline
[4] = dose: 200.0 mg/kg/injection, schedule: Q01DX001 (ip), vehicle: saline
[5] = dose: 50.0 mg/kg/injection, schedule: Q01DX009 (ip), vehicle: Klucel (hydroxypropylcellulose) (HPC)
[6] = dose: 100.0 mg/kg/injection, schedule: Q01DX009 (ip), vehicle: Klucel (hydroxypropylcellulose) (HPC)
[7] = dose: 200.0 mg/kg/injection, schedule: Q01DX009 (ip), vehicle: Klucel (hydroxypropylcellulose) (HPC)
[8] = dose: 100.0 mg/kg/injection, schedule: Q01DX001 (ip), vehicle: Klucel (hydroxypropylcellulose) (HPC)
[9] = dose: 200.0 mg/kg/injection, schedule: Q01DX001 (ip), vehicle: Klucel (hydroxypropylcellulose) (HPC)
[10] = dose: 400.0 mg/kg/injection, schedule: Q01DX001 (ip), vehicle: Klucel (hydroxypropylcellulose) (HPC)
[11] = dose: 400.0 mg/kg/injection, schedule: Q01DX009 (ip), vehicle: Klucel (hydroxypropylcellulose) (HPC)

Measured: T/C

C=C(CC(N)=O)C(=O)O (tested in a mixture with another compound)
inactive: dose: 6.25 mg/kg/injection, schedule: Q01DX009 (ip), vehicle: saline 97 % of control | dose: 12.5 mg/kg/injection, schedule: Q01DX009 (ip), vehicle: saline 100 % of control | [1] 105 % of control | dose: 25.0 mg/kg/injection, schedule: Q01DX009 (ip), vehicle: saline 105 % of control | dose: 35.0 mg/kg/injection, schedule: Q01DX009 (ip), vehicle: saline 94 % of control | [2] 107 % of control | dose: 50.0 mg/kg/injection, schedule: Q01DX009 (ip), vehicle: saline 106 % of control | dose: 65.0 mg/kg/injection, schedule: Q01DX009 (ip), vehicle: saline 102 % of control | [3] 118 % of control | dose: 100.0 mg/kg/injection, schedule: Q01DX009 (ip), vehicle: saline 111 % of control | dose: 125.0 mg/kg/injection, schedule: Q01DX009 (ip), vehicle: saline 119 % of control | dose: 177.0 mg/kg/injection, schedule: Q01DX001 (ip), vehicle: saline 110 % of control | [4] 107 % of control | dose: 200.0 mg/kg/injection, schedule: Q01DX009 (ip), vehicle: saline 111 % of control | dose: 266.0 mg/kg/injection, schedule: Q01DX001 (ip), vehicle: saline 124 % of control | dose: 270.0 mg/kg/injection, schedule: Q01DX001 (ip), vehicle: saline 110 % of control | dose: 270.0 mg/kg/injection, schedule: Q01DX009 (ip), vehicle: saline 120 % of control and 123 % of control | dose: 400.0 mg/kg/injection, schedule: Q01DX001 (ip), vehicle: saline 111 % of control | dose: 400.0 mg/kg/injection, schedule: Q01DX009 (ip), vehicle: saline 101 % of control and 111 % of control and 117 % of control | dose: 600.0 mg/kg/injection, schedule: Q01DX001 (ip), vehicle: saline 114 % of control | dose: 600.0 mg/kg/injection, schedule: Q01DX009 (ip), vehicle: saline 113 % of control | dose: 800.0 mg/kg/injection, schedule: Q01DX001 (ip), vehicle: saline 122 % of control | dose: 1000.0 mg/kg/injection, schedule: Q01DX001 (ip), vehicle: saline 113 % of control

Clc1nc(Nc2ccccc2)c2ccccc2n1
inactive: [5] 111 % of control | [6] 95 % of control | [7] 107 % of control

CC(=O)Nc1cc([As](=O)(O)O)ccc1O
inactive: [5] 105 % of control | [6] 102 % of control | [7] 97 % of control

O=C(Oc1cccc(OC(=O)c2ccc(Cl)cc2)c1)c1ccc(Cl)cc1
inactive: [8] 100 % of control | [6] 112 % of control | [9] 100 % of control | [7] 110 % of control | [10] 93 % of control | [11] 108 % of control

CCOC(=O)c1ccc(NC(=O)Nc2ccc(F)cc2)cc1
inactive: [6] 90 % of control | [7] 90 % of control

Cc1ccc(S(=O)(=O)[O][Sn-]([CH2]c2ccccc2)([CH2]c2ccccc2)[CH2]c2ccccc2)cc1
inactive: dose: 50.0 mg/kg/injection, schedule: Q01DX009 (ip), vehicle: olive oil, sesame oil, peanut oil 97 % of control | dose: 100.0 mg/kg/injection, schedule: Q01DX009 (ip), vehicle: olive oil, sesame oil, peanut oil 92 % of control | dose: 100.0 mg/kg/injection, schedule: Q04DX002 (ip), vehicle: alcohol 97 % of control | dose: 200.0 mg/kg/injection, schedule: Q04DX002 (ip), vehicle: alcohol 90 % of control

CN1CC(C)(C)C(=O)N1
inactive: dose: 25.0 mg/kg/injection, schedule: Q01DX001 (ip), vehicle: saline 97 % of control | [2] 100 % of control | [3] 108 % of control | [4] 86 % of control

O=c1cc(NCCc2ccccc2)[nH]c(=O)[nH]1
inactive: [8] 93 % of control | [9] 95 % of control | [10] 105 % of control

CCCC(=O)N1C(C)CCCC1C (centres undefined)
inactive: dose: 100.0 mg/kg/injection, schedule: Q04DX002 (ip), vehicle: saline 117 % of control | dose: 200.0 mg/kg/injection, schedule: Q04DX002 (ip), vehicle: saline 101 % of control | dose: 400.0 mg/kg/injection, schedule: Q04DX002 (ip), vehicle: saline 93 % of control

CCOC(=O)C(C(=O)OCC)N(CC)CC
inactive: [6] 96 % of control | dose: 100.0 mg/kg/injection, schedule: Q04DX003 (ip), vehicle: Klucel (hydroxypropylcellulose) (HPC) 98 % of control | dose: 200.0 mg/kg/injection, schedule: Q04DX003 (ip), vehicle: Klucel (hydroxypropylcellulose) (HPC) 93 % of control | [11] 95 % of control | dose: 400.0 mg/kg/injection, schedule: Q04DX003 (ip), vehicle: Klucel (hydroxypropylcellulose) (HPC) 109 % of control

C=CCOC(=O)OCc1ccccc1
inactive: dose: 222.0 mg/kg/injection, schedule: Q01DX Z (ip), vehicle: methylcellulose (MC) 92 % of control | dose: 333.0 mg/kg/injection, schedule: Q01DX Z (ip), vehicle: methylcellulose (MC) 89 % of control

COc1cc(C(O)C(Cl)(Cl)Cl)ccc1O (centres undefined)
inactive: dose: 100.0 mg/kg/injection, schedule: Q04DX003 (ip), vehicle: other 105 % of control | dose: 200.0 mg/kg/injection, schedule: Q04DX003 (ip), vehicle: other 105 % of control | dose: 400.0 mg/kg/injection, schedule: Q04DX003 (ip), vehicle: other 102 % of control

COc1ccc(Nc2ccc(OC)cc2C(=O)O)cc1
inactive: dose: 75.0 mg/kg/injection, schedule: Q01DX001 (ip), vehicle: saline 102 % of control | dose: 75.0 mg/kg/injection, schedule: Q01DX009 (ip), vehicle: saline 89 % of control | dose: 150.0 mg/kg/injection, schedule: Q01DX001 (ip), vehicle: saline 102 % of control | dose: 150.0 mg/kg/injection, schedule: Q01DX009 (ip), vehicle: saline 104 % of control | dose: 300.0 mg/kg/injection, schedule: Q01DX001 (ip), vehicle: saline 104 % of control | dose: 300.0 mg/kg/injection, schedule: Q01DX009 (ip), vehicle: saline 101 % of control

O=C1NC(c2cccc3ccccc23)Nc2cc(Cl)ccc21 (centres undefined)
inactive: [5] 109 % of control | [6] 112 % of control | dose: 150.0 mg/kg/injection, schedule: Q01DX009 (ip), vehicle: Klucel (hydroxypropylcellulose) (HPC) 118 % of control

COC(=O)/C=C\C(=O)O (tested in a mixture with another compound)
inactive: dose: 15.5 mg/kg/injection, schedule: Q#A X Z (oral), vehicle: carboxymethylcellulose (CMC) 98 % of control | dose: 31.25 mg/kg/injection, schedule: Q#A X Z (ip), vehicle: carboxymethylcellulose (CMC) 101 % of control | dose: 31.5 mg/kg/injection, schedule: Q#A X Z (oral), vehicle: carboxymethylcellulose (CMC) 100 % of control | dose: 63.0 mg/kg/injection, schedule: Q#A X Z (oral), vehicle: carboxymethylcellulose (CMC) 100 % of control | dose: 126.0 mg/kg/injection, schedule: Q#A X Z (oral), vehicle: carboxymethylcellulose (CMC) 100 % of control

O=c1nc2n(CCN(CCO)CCO)c3cc(Cl)c(Cl)cc3nc-2c(=O)[nH]1
inactive: dose: 5.0 mg/kg/injection, schedule: Q01DX009 (ip), vehicle: saline 107 % of control | dose: 10.0 mg/kg/injection, schedule: Q01DX001 (ip), vehicle: saline 95 % of control | dose: 10.0 mg/kg/injection, schedule: Q01DX009 (ip), vehicle: saline 93 % of control | dose: 20.0 mg/kg/injection, schedule: Q01DX001 (ip), vehicle: saline 102 % of control | [1] 104 % of control | dose: 40.0 mg/kg/injection, schedule: Q01DX001 (ip), vehicle: saline 91 % of control

CCCCCCCCCCCCCCCC[N+](C)(C)c1nc(Cl)nc(Cl)n1
inactive: dose: 3.75 mg/kg/injection, schedule: Q01DX009 (ip), vehicle: saline 102 % of control | dose: 7.5 mg/kg/injection, schedule: Q01DX009 (ip), vehicle: saline 97 % of control | dose: 15.0 mg/kg/injection, schedule: Q01DX009 (ip), vehicle: saline 96 % of control | dose: 30.0 mg/kg/injection, schedule: Q01DX009 (ip), vehicle: saline 96 % of control | dose: 37.5 mg/kg/injection, schedule: Q04DX003 (ip), vehicle: saline 102 % of control | dose: 50.0 mg/kg/injection, schedule: Q01DX001 (ip), vehicle: water 105 % of control | dose: 75.0 mg/kg/injection, schedule: Q04DX003 (ip), vehicle: saline 102 % of control | dose: 100.0 mg/kg/injection, schedule: Q01DX001 (ip), vehicle: water 100 % of control
